Test results: PubChem BioAssay AID192 (DTP/NCI, 2004)
Where “and” joins values, the source holds several entries; their conditions need not be identical. Equal values may be shown once. Inconclusive results and toxic doses are left out. Rule for the calls: active = survival T/C of 150% or more; inactive = T/C below 125% in these data.

System: BDF1 mice, B16 melanoma ip, median survival T/C
Experiment: NCI In Vivo Anticancer Drug Screen. Data for tumor model B16 Melanoma (intraperitoneal) in B6D2F1 (BDF1) mice
Conditions: endpoint: median survival time, higher = longer survival
Outline: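 Tumor-bearing mice received test compound or vehicle. Survival or tumor size was then measured in both groups. The treated-group figure was divided by the control-group figure.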

[1] = dose: 25.0 mg/kg/injection, schedule: Q01DX009 (ip), vehicle: carboxymethylcellulose (CMC)
[2] = dose: 50.0 mg/kg/injection, schedule: Q01DX009 (ip), vehicle: carboxymethylcellulose (CMC)
[3] = dose: 25.0 mg/kg/injection, schedule: Q01DX009 (ip), vehicle: Klucel (hydroxypropylcellulose) (HPC)
[4] = dose: 50.0 mg/kg/injection, schedule: Q01DX009 (ip), vehicle: Klucel (hydroxypropylcellulose) (HPC)
[5] = dose: 100.0 mg/kg/injection, schedule: Q04DX003 (ip), vehicle: saline with Tween-80
[6] = dose: 200.0 mg/kg/injection, schedule: Q01DX009 (ip), vehicle: Klucel (hydroxypropylcellulose) (HPC)
[7] = dose: 200.0 mg/kg/injection, schedule: Q04DX003 (ip), vehicle: saline with Tween-80
[8] = dose: 400.0 mg/kg/injection, schedule: Q04DX003 (ip), vehicle: saline with Tween-80
[9] = dose: 2.5 mg/kg/injection, schedule: Q01DX009 (ip), vehicle: Klucel (hydroxypropylcellulose) (HPC)
[10] = dose: 100.0 mg/kg/injection, schedule: Q01DX009 (ip), vehicle: Klucel (hydroxypropylcellulose) (HPC)
[11] = dose: 300.0 mg/kg/injection, schedule: Q01DX009 (ip), vehicle: Klucel (hydroxypropylcellulose) (HPC)
[12] = dose: 12.5 mg/kg/injection, schedule: Q01DX009 (ip), vehicle: saline
[13] = dose: 25.0 mg/kg/injection, schedule: Q01DX009 (ip), vehicle: saline
[14] = dose: 6.25 mg/kg/injection, schedule: Q01DX009 (ip), vehicle: saline
[15] = dose: 50.0 mg/kg/injection, schedule: Q01DX009 (ip), vehicle: saline
[16] = dose: 100.0 mg/kg/injection, schedule: Q01DX009 (ip), vehicle: saline
[17] = dose: 200.0 mg/kg/injection, schedule: Q01DX009 (ip), vehicle: saline

Measured: T/C

Oc1ccc(Cl)c2cccnc12
inactive: dose: 12.5 mg/kg/injection, schedule: Q01DX009 (ip), vehicle: carboxymethylcellulose (CMC) 90 % of control | [1] 96 % of control | [2] 97 % of control

NC(N)=N/N=C(/c1ccccc1)c1ccc(F)cc1
inactive: dose: 20.0 mg/kg/injection, schedule: Q01DX009 (ip), vehicle: saline 110 % of control | dose: 40.0 mg/kg/injection, schedule: Q01DX009 (ip), vehicle: saline 115 % of control | dose: 80.0 mg/kg/injection, schedule: Q01DX009 (ip), vehicle: saline 102 % of control

O=C1OC(COCC#Cc2ccccc2)CN1c1ccccc1 (stereo not given)
inactive: [3] 97 % of control | [4] 93 % of control | [5] 102 % of control | [6] 91 % of control | [7] 105 % of control | dose: 400.0 mg/kg/injection, schedule: Q01DX009 (ip), vehicle: Klucel (hydroxypropylcellulose) (HPC) 91 % of control | [8] 108 % of control

COc1cccc2c1cc([N+](=O)[O-])c1c(C(=O)O)cc3c(c12)OCO3
inactive: [9] 106 % of control | dose: 5.0 mg/kg/injection, schedule: Q01DX009 (ip), vehicle: Klucel (hydroxypropylcellulose) (HPC) 111 % of control | dose: 10.0 mg/kg/injection, schedule: Q01DX009 (ip), vehicle: Klucel (hydroxypropylcellulose) (HPC) 94 % of control

O=C(O)c1ccccc1C(=O)Nc1cc(Cl)ccc1Cl
inactive: [4] 100 % of control | [10] 94 % of control

O=c1cnn(C2OC(CO)C(O)C2O)c(=O)[nH]1 (stereo not given)
inactive: dose: 75.0 mg/kg/injection, schedule: Q01DX009 (ip), vehicle: Klucel (hydroxypropylcellulose) (HPC) 99 % of control and 100 % of control | dose: 125.0 mg/kg/injection, schedule: Q03HX024 (ip), vehicle: water 116 % of control | dose: 125.0 mg/kg/injection, schedule: Q03HX032 (ip), vehicle: water 119 % of control | dose: 150.0 mg/kg/injection, schedule: Q01DX009 (ip), vehicle: Klucel (hydroxypropylcellulose) (HPC) 92 % of control and 101 % of control | dose: 250.0 mg/kg/injection, schedule: Q03HX024 (ip), vehicle: water 124 % of control | [11] 100 % of control and 102 % of control | dose: 600.0 mg/kg/injection, schedule: Q01DX009 (ip), vehicle: Klucel (hydroxypropylcellulose) (HPC) 101 % of control and 102 % of control | dose: 1200.0 mg/kg/injection, schedule: Q01DX009 (ip), vehicle: Klucel (hydroxypropylcellulose) (HPC) 99 % of control

CC[C@H]1CN2CCc3cc(OC)c(OC)cc3[C@@H]2C[C@@H]1C[C@H]1NCCc2cc(O)c(OC)cc21
inactive: dose: 2.0 mg/kg/injection, schedule: Q01DX009 (ip), vehicle: saline + alcohol 118 % of control | dose: 2.0 mg/kg/injection, schedule: Q01DX009 (ip), vehicle: saline 108 % of control and 120 % of control | dose: 8.0 mg/kg/injection, schedule: Q01DX009 (ip), vehicle: saline + alcohol 113 % of control | dose: 8.0 mg/kg/injection, schedule: Q04DX003 (ip), vehicle: alkali diluted with saline 117 % of control | dose: 16.0 mg/kg/injection, schedule: Q04DX003 (ip), vehicle: alkali diluted with saline 108 % of control | dose: 32.0 mg/kg/injection, schedule: Q04DX003 (ip), vehicle: alkali diluted with saline 122 % of control

C1CCN(CN2CCCCC2)CC1
inactive: [12] 97 % of control | [13] 93 % of control

CCC(CCCN(CC)CCc1ccccc1)OC(=O)c1cc(OC)c(OC)c(OC)c1 (stereo not given)
inactive: dose: 4.68 mg/kg/injection, schedule: Q01DX009 (ip), vehicle: saline 104 % of control | dose: 9.37 mg/kg/injection, schedule: Q01DX009 (ip), vehicle: saline 108 % of control | dose: 18.75 mg/kg/injection, schedule: Q01DX009 (ip), vehicle: saline 103 % of control | dose: 37.5 mg/kg/injection, schedule: Q01DX009 (ip), vehicle: saline 100 % of control | dose: 75.0 mg/kg/injection, schedule: Q01DX009 (ip), vehicle: saline 91 % of control

CCCCOB(/C=C/Sc1ccccc1)OCCCC
inactive: [14] 101 % of control | [12] 119 % of control | [13] 100 % of control | dose: 35.0 mg/kg/injection, schedule: Q01DX009 (ip), vehicle: saline 117 % of control | [4] 102 % of control | [11] 101 % of control

NC(=O)c1ncn(C2OC(CO)C(O)C2O)c1O (stereo not given)
inactive: [3] 104 % of control | [4] 114 % of control | [10] 109 % of control | [6] 111 % of control

CN(C)N=Nc1ccc(C(=O)O)cc1
inactive: [13] 113 % of control | [15] 119 % of control

C=C1C(=O)OC2C1CCC(C)C1CCC(=O)OC12C (stereo not given)
inactive: dose: 3.13 mg/kg/injection, schedule: Q01DX009 (ip), vehicle: Klucel (hydroxypropylcellulose) (HPC) 97 % of control | dose: 6.25 mg/kg/injection, schedule: Q01DX009 (ip), vehicle: Klucel (hydroxypropylcellulose) (HPC) 103 % of control | dose: 12.5 mg/kg/injection, schedule: Q01DX009 (ip), vehicle: Klucel (hydroxypropylcellulose) (HPC) 100 % of control | [3] 101 % of control

CCOC(=O)N(C)C
inactive: [16] 93 % of control | [17] 98 % of control | dose: 400.0 mg/kg/injection, schedule: Q01DX009 (ip), vehicle: saline 94 % of control

CN(C)CCCC1c2ccccc2Oc2ccc(C(F)(F)F)cc21 (stereo not given)
inactive: dose: 3.12 mg/kg/injection, schedule: Q01DX009 (ip), vehicle: saline 86 % of control | [14] 88 % of control | [12] 100 % of control | [13] 97 % of control

CCN(C(=O)Nc1ccccc1)c1ccccc1
inactive: [5] 94 % of control | [7] 100 % of control | [8] 97 % of control

CNC(=S)N/N=C1/c2cc(Cl)ccc2-c2c(Cl)cc(Cl)cc21
inactive: dose: 6.25 mg/kg/injection, schedule: Q01DX009 (ip), vehicle: saline with Tween-80 91 % of control

NC(=O)CC(NC(=O)CCl)C(=O)O (stereo not given)
inactive: dose: 50.0 mg/kg/injection, schedule: Q01DX009 (ip), vehicle: saline with Tween-80 98 % of control | dose: 100.0 mg/kg/injection, schedule: Q01DX009 (ip), vehicle: saline with Tween-80 99 % of control

S=c1[nH]c2ccccc2s1
inactive: [1] 105 % of control | [2] 103 % of control | dose: 100.0 mg/kg/injection, schedule: Q01DX009 (ip), vehicle: carboxymethylcellulose (CMC) 109 % of control

CN(C)CC(C(=O)Cc1ccccc1)c1ccccc1 (stereo not given)
inactive: [13] 93 % of control | [15] 88 % of control | [16] 97 % of control

NC1=NC(=S)C2N=C(N=Nc3ccc(C(=O)NC(CCC(=O)O)C(=O)O)cc3)N=C2N1 (stereo not given)
inactive: dose: 0.09 mg/kg/injection, schedule: Q01DX009 (ip), vehicle: Klucel (hydroxypropylcellulose) (HPC) 100 % of control | dose: 0.19 mg/kg/injection, schedule: Q01DX009 (ip), vehicle: Klucel (hydroxypropylcellulose) (HPC) 107 % of control | dose: 0.39 mg/kg/injection, schedule: Q01DX009 (ip), vehicle: Klucel (hydroxypropylcellulose) (HPC) 111 % of control | dose: 0.78 mg/kg/injection, schedule: Q01DX009 (ip), vehicle: Klucel (hydroxypropylcellulose) (HPC) 107 % of control | dose: 1.56 mg/kg/injection, schedule: Q01DX009 (ip), vehicle: Klucel (hydroxypropylcellulose) (HPC) 89 % of control

C[n+]1c(/C=C\C=C\N2CCCCC2)sc2ccccc21
inactive: dose: 0.06 mg/kg/injection, schedule: Q01DX009 (ip), vehicle: Klucel (hydroxypropylcellulose) (HPC) 101 % of control | dose: 0.12 mg/kg/injection, schedule: Q01DX009 (ip), vehicle: Klucel (hydroxypropylcellulose) (HPC) 105 % of control | dose: 0.25 mg/kg/injection, schedule: Q01DX009 (ip), vehicle: Klucel (hydroxypropylcellulose) (HPC) 101 % of control | dose: 0.5 mg/kg/injection, schedule: Q01DX009 (ip), vehicle: Klucel (hydroxypropylcellulose) (HPC) 95 % of control | dose: 0.63 mg/kg/injection, schedule: Q01DX009 (ip), vehicle: Klucel (hydroxypropylcellulose) (HPC) 103 % of control | dose: 1.0 mg/kg/injection, schedule: Q01DX009 (ip), vehicle: Klucel (hydroxypropylcellulose) (HPC) 101 % of control | dose: 1.25 mg/kg/injection, schedule: Q01DX009 (ip), vehicle: Klucel (hydroxypropylcellulose) (HPC) 101 % of control | dose: 2.0 mg/kg/injection, schedule: Q01DX009 (ip), vehicle: Klucel (hydroxypropylcellulose) (HPC) 105 % of control | [9] 109 % of control

CC1CN(CCC#N)CC(C)O1 (stereo not given)
inactive: [16] 95 % of control | [17] 95 % of control
